This note sets out measurements from patent US8906925B2, “Pyrido[4,3-B]indoles containing rigid moieties” (Medivation Technologies, Inc., priority 2008, dated 2014).

The target of one assay is histamine receptor H1 (Homo sapiens, UniProt P35367). In words: Inhibition of binding of a ligand (Pyrilamine) to histamine receptor H1. To be noted: as compared to the unsubstituted vinyl counterpart (106 vs compound 415; 85 vs compound 95). The method, then:
The number and extent of undesirable side effects increases with increasing affinity for the H1 receptor Thus, in one aspect, compounds of the formulae herein display reduced, low or no affinity to histamine receptor H1. […] Inhibition of binding of a ligand to H1 for all variations detailed herein is determined by a suitable assay known in the art such as the assay described herein. […] In one variation, compounds of the formulae herein inhibit binding of a ligand to H1 by between about 50% to about 80%. […] In one variation, compounds of the formulae herein inhibit binding of Pyrilamine to H1 as determined in the assay described herein. In a further variation, percent inhibition of binding to H1 is measured by assays detailed herein.
The binding properties of compounds disclosed herein to a panel of aminergic G protein-coupled receptors including adrenergic receptors, dopamine receptors, serotonin receptors, histamine receptors and an imidazoline receptor may be determined. Binding properties may be assessed by methods known in the art, such as competitive binding assays. In one variation, compounds are assessed by the binding assays detailed herein. […]
In one aspect, DDT compounds display low affinity to histamine receptor H1. […] Inhibition of binding of a ligand to H1 for all variations detailed herein is determined by a suitable assay known in the art such as the assay described herein. […]

The target of assay [1] is human recombinant serotonin 5-HT2A receptor (Homo sapiens, UniProt P28223). In words: 5-HT2A agonist/antagonist functional assay (cytosolic Ca2+ fluorescence, HEK-293 cells). It counts as cell-based. The text has this: To determine for agonist or antagonist activity of compounds of the invention in functional assays, human recombinant serotonin 5-HT2A receptor expressed in human embryonic kidney (HEK-293) cells (Jerman J C, Brough S J, Gager T, Wood M, Coldwell M C, Smart D and Middlemiss D N, Eur J Pharmacol, 414: 23-30, 2001) or human recombinant serotonin 5-HT7 receptor expressed in CHO cells (Adham, et al. J. Pharmacol. Exp. Ther. 287:508-514, 1998) was used. Cells were suspended in DMEM buffer, and distributed in microplates. For the 5-HT2A assay, a cytoplasmic calcium fluorescent indicator which varies proportionally to the free cytosolic Ca^2+ ion concentration was mixed with probenicid in HBSS buffer complemented with 20 mM Hepes (pH 7.4), added into each well and equilibrated with the cells for 30 min. at 37° C. followed by 30 min. at 22° C. For the 5-HT7 assay, the reaction product was cAMP, detected by HTRF.
To measure 5-HT2A agonist effects, compounds of the invention, reference agonist or HBSS buffer (basal control) was added to the cells and changes in fluorescence intensity were measured using a microplate reader.
The standard reference antagonist was ketanserin (5-HT2A) or mesulergine (5-HT7), which was tested in each experiment at several concentrations to generate a concentration-response curve from which its IC50 value was calculated. […]

The target in assay [2] is human recombinant dopamine D2S receptor (Homo sapiens, UniProt P14416). Nature of the assay: Dopamine D2S [35S]GTPγS functional assay (SPA, CHO membranes). To be noted: read-out: D2S GTPgS % Inhibition. Format: biochemical. As for the experimental part: To determine for agonist or antagonist activity of compounds of the invention in functional assays, human recombinant dopamine D2S receptor stably expressed in Chinese hamster ovary (CHO) cells (Gilliland S L and Alper R H. Naunyn-Schmiedeberg's Archives of Pharmacology. 361: 498, 2000) was used. Compounds of invention were pre-incubated with the membranes (0.05 mg/mL) and 3 µM GDP in modified HEPES buffer (20 mM HEPES, pH 7.4, 100 mM NaCl, 10 mM MgCl2, 1 mM DTT, 1 mM EDTA) for 20 min. and Scintillation Proximity Assay (SPA) beads were then added for another 60 min. at 30° C. The reaction was initiated by 0.3 nM [^35S]GTPγS for an additional 30 min. incubation period. […] Compounds were screened at […] or lower, using 0.4% DMSO as vehicle. Assay results are presented as the percent response of specific binding in Table 13.

Where “and” joins values, the source holds several entries; their conditions need not be identical. Identical values can stand only once.

Sequence of human recombinant dopamine D2S receptor (P14416 1-414 isoform P14416-2): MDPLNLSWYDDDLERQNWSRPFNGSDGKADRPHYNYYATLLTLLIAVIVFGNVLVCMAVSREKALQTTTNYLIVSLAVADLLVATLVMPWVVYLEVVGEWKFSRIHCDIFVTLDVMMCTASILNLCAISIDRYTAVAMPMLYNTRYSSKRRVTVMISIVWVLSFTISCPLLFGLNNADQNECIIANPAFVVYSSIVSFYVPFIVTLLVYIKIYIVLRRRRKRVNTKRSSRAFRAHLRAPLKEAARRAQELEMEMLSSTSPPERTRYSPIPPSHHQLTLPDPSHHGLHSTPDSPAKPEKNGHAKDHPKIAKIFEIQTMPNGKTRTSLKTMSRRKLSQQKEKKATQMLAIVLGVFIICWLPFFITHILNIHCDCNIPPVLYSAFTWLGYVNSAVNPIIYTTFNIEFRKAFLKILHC
Sequence of human recombinant serotonin 5-HT2A receptor (P28223 whole entry): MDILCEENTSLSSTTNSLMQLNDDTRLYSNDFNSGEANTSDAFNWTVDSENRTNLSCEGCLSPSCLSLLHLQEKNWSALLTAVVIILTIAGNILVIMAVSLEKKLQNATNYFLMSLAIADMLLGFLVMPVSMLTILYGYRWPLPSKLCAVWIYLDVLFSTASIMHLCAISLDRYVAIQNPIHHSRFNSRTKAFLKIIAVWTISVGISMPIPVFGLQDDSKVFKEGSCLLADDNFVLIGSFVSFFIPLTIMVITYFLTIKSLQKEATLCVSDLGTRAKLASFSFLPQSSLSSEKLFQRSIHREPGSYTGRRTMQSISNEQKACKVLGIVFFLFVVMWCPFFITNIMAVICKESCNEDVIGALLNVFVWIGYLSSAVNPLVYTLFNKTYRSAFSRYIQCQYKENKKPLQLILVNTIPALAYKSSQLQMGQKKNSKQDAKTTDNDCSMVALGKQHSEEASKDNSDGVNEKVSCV
Sequence of histamine receptor H1 (P35367 whole entry): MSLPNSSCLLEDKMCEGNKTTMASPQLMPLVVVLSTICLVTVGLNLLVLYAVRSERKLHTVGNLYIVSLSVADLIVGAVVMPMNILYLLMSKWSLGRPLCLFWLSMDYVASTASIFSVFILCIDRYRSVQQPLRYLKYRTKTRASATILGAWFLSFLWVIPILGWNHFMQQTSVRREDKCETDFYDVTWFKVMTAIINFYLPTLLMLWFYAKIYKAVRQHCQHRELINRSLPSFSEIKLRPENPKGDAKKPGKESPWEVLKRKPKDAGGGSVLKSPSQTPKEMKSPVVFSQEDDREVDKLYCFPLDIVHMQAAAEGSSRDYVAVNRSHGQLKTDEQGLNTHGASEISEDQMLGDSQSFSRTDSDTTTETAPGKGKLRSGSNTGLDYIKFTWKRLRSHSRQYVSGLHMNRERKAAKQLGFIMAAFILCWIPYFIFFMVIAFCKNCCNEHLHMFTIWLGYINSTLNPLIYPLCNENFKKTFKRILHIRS

`C/C(=C\n1c2c(c3cc(Cl)ccc31)CN(C)CC2)c1ccccc1` [compound 106, (E)-8-chloro-2,3,4,5-tetrahydro-2-methyl-5-(2-phenylprop-1-enyl)-1H-pyrido[4,3-b]indole]: the “binding affinity to H1” value at histamine receptor H1 was “lower binding affinity to H1”.
The term EC50 denotes the concentration at which the effect is half-maximal. Usually IC50 stands for the concentration needed to halve the response being measured. The term inhibition denotes the relative decrease from the control value, in per cent. As for `C/C(=C\n1c2c(c3cc(Cl)ccc31)CN(C)CC2)c1ccc(F)cc1` [Compound 83, (E)-8-chloro-5-(2-(4-fluorophenyl)prop-1-enyl)-2,3,4,5-tetrahydro-2-methyl-1H-pyrido[4,3-b]indole], the EC50 in assay [1] was 3.1 µM. The IC50 in assay [1] (vs 3 nM 5-HT) was 0.97 µM and > 1 µM. For the same compound, the inhibition at 0.001 µM in assay [2] (conc. 1 nM) came out at 15%. In assay [2] (conc. 3 nM), the inhibition at 0.003 µM worked out at 45%. In assay [2] (conc. 10 nM), the inhibition at 0.01 µM is 56%. Also, the inhibition at 0.03 µM in assay [2] (conc. 30 nM) turned out to be 74%. Besides, the inhibition at 0.1 µM in assay [2] (conc. 100 nM) was 91%.
